Measured values taken from publication PMC9844320, “Novel CaLB-like Lipase Found Using ProspectBIO, a Software for Genome-Based Bioprospection” (BioTech, 2023).

Legend:
rLipB = target: T1, rLipB (Moesziomyces antarcticus, UniProt P41365); assay: spectrofluorimetric release of 4-methylumbelliferone by lyophilized culture supernatant; type: biochemical; settings: pH 7, 0.05 M phosphate, 45 °C; crude lyophilized supernatant
T1 construct: recombinant CaLB secreted constitutively (PGK promoter) by Pichia pastoris; lyophilized culture supernatant, gift of LaBiM, not purified
T1 sequence (P41365 26-342): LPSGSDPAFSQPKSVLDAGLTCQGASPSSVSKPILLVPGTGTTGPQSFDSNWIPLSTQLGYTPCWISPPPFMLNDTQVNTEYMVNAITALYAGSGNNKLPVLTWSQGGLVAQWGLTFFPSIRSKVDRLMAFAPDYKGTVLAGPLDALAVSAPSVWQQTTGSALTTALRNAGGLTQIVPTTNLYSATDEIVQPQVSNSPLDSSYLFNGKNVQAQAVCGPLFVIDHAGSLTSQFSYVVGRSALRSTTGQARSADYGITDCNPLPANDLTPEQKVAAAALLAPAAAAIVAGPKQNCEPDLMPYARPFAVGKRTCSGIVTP

UhL [1] = target: T2, UhL (Ustilago hordei, UniProt I2G5F8); assay: spectrofluorimetric release of 4-methylumbelliferone by culture supernatant; type: biochemical; settings: pH 7, 0.05 M phosphate, 45 °C; crude culture supernatant
T2 construct: gene UHOR_02134; codon-optimized gene in pPICZalphaA (alpha-factor secretion), C-terminal 6xHis, 330 residues expressed, 35 kDa predicted / 36 kDa by Western blot, N-glycosylated; Pichia pastoris X-33 culture supernatant, not purified
T2 sequence (I2G5F8 20-343): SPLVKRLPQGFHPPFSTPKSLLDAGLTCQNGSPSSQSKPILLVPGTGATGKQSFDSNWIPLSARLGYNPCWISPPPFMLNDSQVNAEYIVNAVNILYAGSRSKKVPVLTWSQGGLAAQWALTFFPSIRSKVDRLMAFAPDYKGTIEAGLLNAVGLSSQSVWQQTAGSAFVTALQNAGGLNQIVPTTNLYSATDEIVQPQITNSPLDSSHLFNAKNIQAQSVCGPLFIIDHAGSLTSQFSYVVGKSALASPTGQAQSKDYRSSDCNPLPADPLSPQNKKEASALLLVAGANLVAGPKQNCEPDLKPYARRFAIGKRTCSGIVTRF

UhL [2] = target: T2, UhL; assay: hydrolysis halo on tributyrin agar plate of expressing clones (wild-type X-33 as control); type: cell-based; settings: BMMY agar, pH 6.0, 30 °C, 4 days, methanol induction

SMILES | relative activity (rLipB) | relative activity (UhL [1]) | hydrolysis halo on tributyrin agar plate of expressing clones (wild-type X-33 as) (UhL [2])
CCCC(=O)Oc1ccc2c(C)cc(=O)oc2c1 [C4, MUF-butyrate] | rLipB activity was increased, as the ester substrate chain length increased up to C7 |  | 
CCCCCCC(=O)Oc1ccc2c(C)cc(=O)oc2c1 [MUF-7, MUF-heptanoate] | Both enzymes showed the highest activity with MUF-heptanoate (MUF-7) | Both enzymes showed the highest activity with MUF-heptanoate (MUF-7) | 
CCCC(=O)OCC(COC(=O)CCC)OC(=O)CCC [tributyrin] |  |  | expressed in Pichia pastoris, showing activity against tributyrin triglyceride
